In ChEMBL document CHEMBL6134875, “Farnesyl Transferase Inhibitors as a Novel Strategy for Targeting KRAS-Dependent Cancers” (2025):

Columns and labels:
Format in all cases: functional
NCI-H2122 [1] = assay: Antitumor activity against human NCI-H2122 cells harboring KRAS […] mutant xenografted in BALB/c nude mouse assessed as T/C ratio at 15 mg/kg, po administered twice daily and measured on day 27 relative to control; conditions: time 27 day
NCI-H2122 [2] = assay: Antitumor activity against human NCI-H2122 cells harboring KRAS […] mutant xenografted in BALB/c nude mouse assessed as tumor growth inhibition at 15 mg/kg, po administered once daily and measured on day 27 in presence of adagrasib; conditions: NCI-H2122, 648 h, time 27 day, read-out: TGI
NCI-H2122 [3] = assay: Antitumor activity against human NCI-H2122 cells harboring KRAS […] mutant xenografted in BALB/c nude mouse assessed as tumor volume at 15 mg/kg, po administered once daily and measured on day 27 in presence of adagrasib (reference value: 1559.54 +/- 225.48 mm3); conditions: time 27 day
NCI-H2122 [4] = assay: Antitumor activity against human NCI-H2122 cells harboring KRAS […] mutant xenografted in BALB/c nude mouse assessed as T/C ratio at 15 mg/kg, po administered once daily and measured on day 27 in presence of adagrasib relative to control; conditions: time 27 day
NCI-H2122 [5] = assay: Antitumor activity against human NCI-H2122 cells harboring KRAS […] mutant xenografted in BALB/c nude mouse assessed as tumor growth inhibition at 15 mg/kg, po administered twice daily and measured on day 27; conditions: NCI-H2122, 648 h, time 27 day, read-out: TGI
NCI-H2122 [6] = assay: Antitumor activity against human NCI-H2122 cells harboring KRAS […] mutant xenografted in BALB/c nude mouse assessed as tumor volume at 15 mg/kg, po administered twice daily and measured on day 27 (reference value: 1559.54 +/- 225.48 mm3); conditions: time 27 day
NCI-H2122 [7] = assay: Antitumor activity against human NCI-H2122 cells harboring KRAS […] mutant xenografted in BALB/c nude mouse assessed as tumor growth inhibition at 100 mg/kg, po administered once daily and measured on day 27; conditions: NCI-H2122, 648 h, time 27 day, read-out: TGI
NCI-H2122 [8] = assay: Antitumor activity against human NCI-H2122 cells harboring KRAS […] mutant xenografted in BALB/c nude mouse assessed as tumor volume at 100 mg/kg, po administered once daily and measured on day 27 (reference value: 1559.54 +/- 225.48 mm3); conditions: time 27 day
NCI-H2122 [9] = assay: Antitumor activity against human NCI-H2122 cells harboring KRAS […] mutant xenografted in BALB/c nude mouse assessed as T/C ratio at 100 mg/kg, po administered once daily and measured on day 27 relative to control; conditions: time 27 day
NCI-H2122 [10] = assay: Antitumor activity against human NCI-H2122 cells harboring KRAS […] mutant xenografted in BALB/c nude mouse assessed as T/C ratio at 60 mg/kg, po administered twice daily and measured on day 27 relative to control; conditions: time 27 day
NCI-H2122 [11] = assay: Antitumor activity against human NCI-H2122 cells harboring KRAS […] mutant xenografted in BALB/c nude mouse assessed as T/C ratio at 60 mg/kg, po administered once daily and measured on day 27 in presence of sotorasib relative to control; conditions: time 27 day
NCI-H2122 [12] = assay: Antitumor activity against human NCI-H2122 cells harboring KRAS […] mutant xenografted in BALB/c nude mouse assessed as tumor growth inhibition at 60 mg/kg, po administered once daily and measured on day 27 in presence of adagrasib; conditions: NCI-H2122, 648 h, time 27 day, read-out: TGI
NCI-H2122 [13] = assay: Antitumor activity against human NCI-H2122 cells harboring KRAS […] mutant xenografted in BALB/c nude mouse assessed as tumor growth inhibition at 60 mg/kg, po administered twice daily and measured on day 27; conditions: NCI-H2122, 648 h, time 27 day, read-out: TGI
NCI-H2122 [14] = assay: Antitumor activity against human NCI-H2122 cells harboring KRAS […] mutant xenografted in BALB/c nude mouse assessed as tumor volume at 60 mg/kg, po administered once daily and measured on day 27 in presence of adagrasib (reference value: 1559.54 +/- 225.48 mm3); conditions: time 27 day
NCI-H2122 [15] = assay: Antitumor activity against human NCI-H2122 cells harboring KRAS […] mutant xenografted in BALB/c nude mouse assessed as tumor volume at 60 mg/kg, po administered once daily and measured on day 27 in presence of sotorasib (reference value: 1559.54 +/- 225.48 mm3); conditions: time 27 day
NCI-H2122 [16] = assay: Antitumor activity against human NCI-H2122 cells harboring KRAS […] mutant xenografted in BALB/c nude mouse assessed as tumor growth inhibition at 60 mg/kg, po administered once daily and measured on day 27 in presence of sotorasib; conditions: NCI-H2122, 648 h, time 27 day, read-out: TGI
NCI-H2122 [17] = assay: Antitumor activity against human NCI-H2122 cells harboring KRAS […] mutant xenografted in BALB/c nude mouse assessed as T/C ratio at 60 mg/kg, po administered once daily and measured on day 27 in presence of adagrasib relative to control; conditions: time 27 day
NCI-H2122 [18] = assay: Antitumor activity against human NCI-H2122 cells harboring KRAS […] mutant xenografted in BALB/c nude mouse assessed as tumor volume at 60 mg/kg, po administered twice daily and measured on day 27 (reference value: 1559.54 +/- 225.48 mm3); conditions: time 27 day

**Q.** How did the T/C (NCI-H2122 [1]) turn out when Cn1cncc1[C@@]1(N)c2ccc(C#N)c(c2)COc2cccc(c2)-c2cc(C#N)nc3ccc1cc23 was run?
**A.** 68.13%

**Q.** And the inhibition in vivo at 15 mg/kg (NCI-H2122 [2])?
**A.** 88%

**Q.** What about the Activity (NCI-H2122 [3]) of the same molecule?
**A.** 187.07 mm3

**Q.** And the T/C (NCI-H2122 [4])?
**A.** 12%

**Q.** What about the inhibition in vivo at 15 mg/kg (NCI-H2122 [5]) of the same molecule?
**A.** 31.9%

**Q.** What about the Activity (NCI-H2122 [6]) of the same molecule?
**A.** 1062.47 mm3

**Q.** How did the inhibition in vivo at 100 mg/kg (NCI-H2122 [7]) turn out when C=C(F)C(=O)N1CCN(c2nc(OC[C@@H]3CCCN3C)nc3c2CCN(c2cccc4cccc(Cl)c24)C3)C[C@@H]1CC#N [ADAGRASIB] was run?
**A.** 61.5%

**Q.** What about the Activity (NCI-H2122 [8]) of the same molecule?
**A.** 600.26 mm3

**Q.** What about the T/C (NCI-H2122 [9]) of the same molecule?
**A.** 38.49%

**Q.** What does the source list for Cn1cncc1[C@@](N)(c1ccc(Cl)cc1)c1ccc2c(c1)c(-c1cccc(Cl)c1)cc(=O)n2C [TIPIFARNIB]?
**A.** T/C (NCI-H2122 [10]): 64.15%; T/C (NCI-H2122 [11]): 14.99%; inhibition in vivo at 60 mg/kg (NCI-H2122 [12]): 88.6%; inhibition in vivo at 60 mg/kg (NCI-H2122 [13]): 35.9%; Activity (NCI-H2122 [14]): 177.5 mm3; Activity (NCI-H2122 [15]): 233.84 mm3; inhibition in vivo at 60 mg/kg (NCI-H2122 [16]): 85%; T/C (NCI-H2122 [17]): 11.38%; Activity (NCI-H2122 [18]): 1000.38 mm3

**Q.** Which inhibition in vivo at 100 mg/kg (NCI-H2122 [7]) does the source give for C=CC(=O)N1CCN(c2nc(=O)n(-c3c(C)ccnc3C(C)C)c3nc(-c4c(O)cccc4F)c(F)cc23)[C@@H](C)C1 [SOTORASIB] here?
**A.** 58.8%

**Q.** And the Activity (NCI-H2122 [8])?
**A.** 643.34 mm3

**Q.** And the T/C (NCI-H2122 [17])?
**A.** 41.25%
